From patent US20170189465A1, “Anti Hallucination Drug” (Kracie Pharma, Ltd., priority 2014, published 2017)

Assays:
Format in all cases: in vivo
head-twitches of mice = test: Production of hallucination model mouse with DOI; details: 1 mg/kg intraperitoneally, counted for five minutes after five minutes
Experimental: (§1) Four-week-old ICR male mice (17-19 g) were purchased from Japan SLC, Inc. and subjected to the experiment after an acclimatization period of a week. The animals were kept at a room temperature of 23±2° C. at a humidity of 55±10% in a 12-hour cycle of turning on the light at 8:00 and turning off the light at 20:00. The experimental animals were allowed to drink water and eat freely during the period of the experiment.
(§2) In a physiological saline solution, (+/−) 2,5-dimethoxy-4-iodoamphetamine (DOI: sigma Lot 0.012M4812V), which is a hallucinogen, was dissolved. Immediately after intraperitoneally injecting the solution to the mice at 1 mg/kg, the mice were moved to a breeding cage without a floor mat. After five minutes, the numbers of head-twitches of the mice (used as an indicator of a hallucinatory symptom) were counted for five minutes (Egashira et al., Repeated administration of Yokukansan inhibits DOI-induced head-twitch response and decreases expression of 5-hydroxytryptamine (5-HT) 2A receptors in the prefrontal cortex., Prog Neuropsychopharmacol Biol Psychiatry., 32, 1516-1520, 2008). In this regard, to exclude the influence of external noise or the like on the behavior of the mice, the head-twitches were counted in a soundproof chamber.

[1] = tested on: hallucinogen-induced head-twitching response in mice; test: DOI-induced head-twitching response in mice after single application (one oral administration); details: single oral application, 0.03, 0.15 and 0.75 mg/kg, DOI i.p. after one hour, FIG. 7
Experimental: as §2
Similar ICR male mice to those used in Test 1 were randomly divided into eight groups including a normal group, a control group and six test groups. A 0.5% CMC-Na solution was […], and the atractylodes rhizome extract at different doses ([…]) and the atractylodes lancea rhizome extract at different doses ([…]), which were each prepared using a 0.5% CMC-Na solution, […] […] Then, the head-twitches of the mice were counted in a similar manner as in Test 1. […] Here, when p<0.05, it was determined that the result attained statistical significance. […]

[2] = tested on: hallucinogen-induced head-twitching response in mice; test: DOI-induced head-twitching response in mice after oral administration once a day for 14 days; details: oral once a day for 14 days, DOI 1 mg/kg i.p.
Experimental: as §1, §2
Similar ICR male mice to those used in Test 1 were randomly divided into eight groups including a normal group, a control group and six test groups. A 0.5% CMC-Na solution was orally administered to the normal group and the control group once a day for 14 days, and the atractylodes rhizome extract at different doses (20, 100 and 500 mg/kg) and the atractylodes lancea rhizome extract at different doses (20, 100 and 500 mg/kg), which were each prepared using a 0.5% CMC-Na solution, were orally administered to the six test groups once a day for 14 days. One hour after the completion of the final oral administration, 1 mg/kg of DOI was intraperitoneally injected to the mice of the control group and the test groups. Then, the head-twitches of the mice were counted in a similar manner as in Test 1. The results of the measurement were tested by the Dunnett's test using one-way analysis of variance for the comparison between multiple groups. Here, when p<0.05, it was determined that the result attained statistical significance.
The anti-hallucination actions of atractylenolide III and β-eudesmol were examined by the same method as that of Test 2 except for the points which are especially specified. In this test, atractylenolide III purified in Example 1 and commercial β-eudesmol (Lot. WEG2032, Wako Pure Chemical Industries, Ltd.) were dissolved in corn oil and used. The doses were set based on the average amounts of the compounds contained in the crude drugs and on the doses used in Test 2. Specifically, the doses of atractylenolide III were set at 0.03, 0.15 and 0.7 mg/kg, and the doses of β-eudesmol were set at 0.4, 2.0 and 10 mg/kg.
The anti-hallucination actions of atractylone and atractylenolide II were examined by the same method as that of Test 2 except for the points which are especially specified. In this test, atractylone and atractylenolide II purified in Example 1 were dissolved in corn oil and used. The doses of atractylone were set at 0.36, 1.8 and 9.0 mg/kg, and the doses of atractylenolide II were set at 0.03, 0.15 and 0.75 mg/kg.
The anti-hallucination action of atractylenolide I was examined by the same method as that of Test 2 except for the points which are especially specified. In this test, atractylenolide I purified in Example 1 was dissolved in corn oil and used. The doses of atractylenolide I were set at 0.03, 0.15 and 0.75 mg/kg.

**Q.** COc1cc(CC(C)N)c(OC)cc1I (racemic) [DOI, (+/−) 2,5-dimethoxy-4-iodoamphetamine] was tested. Which “numbers of head-twitches compared with normal mice” value (head-twitches of mice) did it give?
**A.** higher

**Q.** What does the source list for C=C1CCC[C@]2(C)C[C@]3(O)OC(=O)C(C)=C3C[C@@H]12 [atractylenolide III]?
**A.** number of head-twitches versus the control group [1]: no significant difference; number of head-twitches as compared to the control group ([2]; 0.15 mg/kg in corn oil): decreased significantly; number of head-twitches as compared to the control group ([2]; 0.7 mg/kg in corn oil): decreased significantly

**Q.** What does the source list for C=C1CCC[C@]2(C)C=C3OC(=O)C(C)=C3C[C@@H]12 [atractylenolide I]?
**A.** number of head-twitches as compared to the control group ([2]; 0.15 mg/kg in corn oil): decreased significantly; number of head-twitches as compared to the control group ([2]; 0.75 mg/kg in corn oil): decreased significantly

**Q.** C=C1CCC[C@]2(C)Cc3occ(C)c3C[C@@H]12 [atractylone] was tested. Which “number of head-twitches as compared to the control group” value (“number … compared to the control group” below) ([2]; 9.0 mg/kg in corn oil) did it give?
**A.** decreased significantly

**Q.** With C=C1CCC[C@]2(C)CC[C@@H](C(C)(C)O)C[C@@H]12 [β-eudesmol] as the compound, how does the “number … compared to the control group” value ([2]; 10 mg/kg in corn oil) read?
**A.** decreased significantly

**Q.** For atractylenolide II, which “number … compared to the control group” value ([2]; 0.75 mg/kg in corn oil) is on record?
**A.** decreased significantly
